Measurements published in patent US20020072081A1, “Geranylgeranyl transferase inhibitor screening assay” (priority 2000, published 2002).

Molecular target: T1, GGTase-I (Rattus norvegicus, UniProt P53610)
T1 construct: endogenous in cells; host or cells: H-ras transformed Rat1 fibroblast cell line (Hras2b/rat1)
Test: Cell Radiotracer Assay of Geranylgeranyl Transferase Inhibitor (CRAGGTI), radioligand binding to living cells
Settings: H-ras transformed Rat1 fibroblast cell line; specific binding, non-specific determined with 1000-fold molar excess of unlabeled Compound A; read-out: concentration of [^3H] Compound A that achieves half maximal binding to cells (apparent Kd)
Protocol: In an embodiment of the instant invention, the assay involves growing a cell line in 24-well cell culture plates as an adherent population of cells until the cell culture is nearly confluent. The concentration of radioligand required to achieve half-maximal specific binding to cells is determined by adding the radioligand at varying concentrations to cell culture media, and incubating this mixture with the cells for a defined period of time. To determine the level of non-specific binding of the radioligand, excess unlabeled GGTase-I inhibitor (unlabeled radioligand) is added to some of the wells. After incubation, the unbound radioligand is removed from the cells. […] The cell layer is then solubilized and analyzed. Having determined the concentration of radioligand that achieves half maximal binding to cells, one can determine the relative IC50s of test compounds by incubating varying concentrations of test compounds with the appropriate concentration of radioligand, and perform the cell incubations, washes, and solubilization steps as described. […]
Briefly, the method involves growing a cell line in 24-well cell culture plates as an adherent population of cells until the cell culture is nearly confluent. […] Compound A required to achieve half-maximal specific binding to cells is determined by adding [^3H] […] Having determined the concentration of [^3H] […]

[3H]C(O)(CN1CCN(Cc2cncn2Cc2ccc(C#N)cc2)CC1=O)C12CC3CC(CC(C3)C1)C2 (stereo not shown) [[^3H] Compound A, [^3H]-R/S 1-(4-Cyanobenzyl)-5-[1-(2-hydroxy-2-(adamant-1-yl)ethyl)-2-oxo-piperazin-4-vl-methyl]imidazole]
Kd: ~0.3 nM
